Bounds are passed on as bounds.

The first assay relates to NF-κB mediated transcription. As to the kind of experiment: NF-κB driven β-lactamase reporter assay in ECV-304 NF-κB.βlaZ cells (AURORA CCF2 fluorescence). Type of assay: cell-based, human. Particulars: 10 μM compound; ECV-304 NF-κB.βlaZ cells stimulated with 10 ng/mL TNF-α or 100 pg/mL IL-1β, 6 hours at 37° C.; inhibition of maximum blue/green ratio. An excerpt:
Introduction: Described below is an in vitro, cell-based, high throughput screening assay that reliably identifies inhibitors of NF-κB mediated transcription.
The assay takes advantage of AURORA (Aurora Bioscience Corporation, La Jolla, Calif.) fluorescence technology. Endothelial cell vein-304 (ECV-304) cells, an endothelial-like immortalized cell type, may be stably transfected with a plasmid vector containing the cDNA for the enzyme β-lactamase (under the control of a basal promoter, Stratagene pNFκB-luc vector) and 5 copies of an human immunodeficiency virus-1 (HIV-1) NF-κB binding site. ECV-304 cells are described by Takahashi K. et al. in Spontaneous Transformation and Immobilization of Human Endothelial Cells, In Vitro Cell. Dev. Biol. 1990;25:265-274. Activation of NF-κB in ECV-304 by cytokines such as TNF-α or interleuken-1 beta (IL-1β) results in the production of β-lactamase, which cleaves a green fluorescent substrate (excitation/emission wavelengths 395 nm1530 nm) to yield a blue fluorescent product (excitation/emission wavelengths 395 nm/460 nm). Visually, the uncleaved green fluorescent substrate is sequestered intracellularly and emits green fluorescence, while the cleaved product emits blue fluorescence. Fluorescence is quantitated spectrophotometrically, and the spectral intensity of blue fluorescence versus green fluorescence can be used to calculate the degree of activation of NF-κB.
The assay was performed as outlined here and described in detail below. ECV-304 cells permanently transfected with the NF-κB driven β-lactamase gene (ECV-304 NF-κB.βlaZ) were plated in clear-bottom, black 96-well plates (1.25×10^4 cells/well) in media-199 (M-199) media containing 2% fetal bovine serum (FBS). […] The AURORA fluorescent disclosing reagent was then added. After one additional hour, the plates were read in a fluorometer at the blue 395 nm/460 nm (excitation/emission) and green 395 nm/530 nm wavelengths. Then the blue/green emission ratio was calculated. […] An IC50 for said sulfonylaminocarbonyl derivative was determined from a dose-response curve. This assay was designed to be optionally run in either high or low throughput screening modes.
Five copies of the HIV-1 NF-κB binding site (5′-[…]-3′) along with a TATA box were inserted into the EcorRI/BamHI sites of plasmid pMCRBlaZ to create plasmid p5×KBBlaZ, which procedure is illustrated in Scheme 1 below. [formula]
Cells were selected for antibiotic resistance with Zeocin for approximately 2 weeks. After the stable population had been expanded to a significant number of cells, it was stimulated with IL-1β and stained with AURORA CCF2 dye, a membrane permeant, intracellularly-trapped, fluorescent substrate. Cells that fluoresced blue (indicating a positive response of the NF-κB/β-lactamase reporter to stimulation by IL-1β) in the stimulated/stained population were then sorted by flow cytometry into a pool. The pool was expanded and stained with CCF2, and then the cells that fluoresced green from this unstimulated population (indicating a low background of the NF-κB/β-lactamase reporter construct) were cloned by flow cytometry after adding 1 cell per well in 96-well plates. Clones were allowed to expand. Each cloned cell line was then examined for fold stimulation after stimulation with IL-1β using a CCF2 reporter assay, and these stimulated cells were compared to unstimulated cells.
Cells: ECV-304 NF-κB β-Lactamase clone 1E8
Inhibitors: Prepared stock solutions of aminosulfonyl derivatives at 10 mM concentration in DMSO;
c) Added 10 μL of B into appropriate well in assay plate (the final concentration of drug is 10 μM), and […]
Background: A reporter such as luciferase makes a cellular process visible.
Consider `CCCCCCCCCCN(CCCCCCCCCC)S(=O)(=O)NC(=O)Nc1c(C(C)C)cccc1C(C)C` [Example 75, Urea, N-[2,6-bis (1-methylethyl)phenyl]-N′-[(didecylamino)sulfonyl]-], for which the “Percent Inhibition at 10 μM” value is <10%.

The assay is the same for the next values; noted with them: 10 μM compound; ECV-304 NF-κB.βlaZ cells stimulated with 10 ng/mL TNF-α or 100 pg/mL IL-1β, 6 hours at 37° C.; inhibition of maximum blue/green ratio; 10 µM.
Take `CCCCCCCCCCCCOC(=O)NS(=O)(=O)Nc1c(C(C)C)cccc1C(C)C` [Example 53, Carbamic acid, [[[2,6-bis(1-methylethyl)phenyl]amino]sulfonyl]-, dodecyl ester]: the “Percent Inhibition at 10 μM” value is listed as 61.31%.

Still in this assay, the particulars now being: Homo sapiens, ECV-304, 6 h, 10 μM compound; ECV-304 NF-κB.βlaZ cells stimulated with 10 ng/mL TNF-α or 100 pg/mL IL-1β, 6 hours at 37° C.; inhibition of maximum blue/green ratio; read-out: Percent Inhibition at 10 μM.
For the compound `COC(=O)NS(=O)(=O)Nc1c(C(C)C)cccc1C(C)C` [Example 54, Carbamic acid, [[[2,6-bis(1-methylethyl)phenyl]amino]sulfonyl]-, methyl ester], the inhibition (commonly the percentage by which the read-out fell short of the control) at 10 µM is < 10%.
`CCCCCCCCCCCCOC(=O)NS(=O)(=O)Oc1c(C(C)C)cccc1C(C)C` [Example 55, Carbamic acid, [[2,6-bis(1-methylethyl)phenoxy]sulfonyl]-, dodecyl ester]: the inhibition at 10 µM was determined as 55.1%.
In the case of `CCCCCCCCCCCCCCCCCCOS(=O)(=O)NC(=O)Nc1c(C(C)C)cccc1C(C)C` [Example 60, Sulfamic acid, [[[2,6-bis(1-methylethyl)phenyl]amino]carbonyl]-, octadecyl ester], the inhibition at 10 µM was < 10%.
`CCCCCCCCCCCCOC(=O)NS(=O)(=O)OCCCCCCCCCCCC` [Example 61, Carbamic acid, [(dodecyloxy)sulfonyl]-, dodecyl ester]: the inhibition at 10 µM amounted to 27.4%.
The same measure, in the same setting: under `CC(C)c1cccc(C(C)C)c1NC(=O)NS(=O)(=O)N(C(C)C)C1CCCCC1` [Example 63, Urea, N-[2,6-bis(1-methylethyl)phenyl]-N′-[[cyclohexyl(1-methylethyl)amino]-sulfonyl]-] stands 23%; under `CCCCCN(CCCCC)S(=O)(=O)NC(=O)Nc1c(C(C)C)cccc1C(C)C` [Example 64, Urea, N-[2,6-bis(1-methylethyl)phenyl]-N′-[(dipentylamino)sulfonyl]-], 55.4%.
Take `CC(C)CN(CC(C)C)S(=O)(=O)NC(=O)Nc1c(C(C)C)cccc1C(C)C` [Example 68, Urea, N-[2,6-bis(1-methylethyl)phenyl]-N′-[[bis(2-methylpropyl)amino]-sulfonyl]-]: the inhibition at 10 µM came to 34.3%.
On to `CCCCCCCCCCCCOS(=O)(=O)NC(=O)Nc1c(C(C)C)cccc1C(C)C` [Example 69, Sulfamic acid, [[[2,6-bis(1-methylethyl)phenyl]amino]carbonyl]-, dodecyl ester], for which the inhibition at 10 µM came to 75.5%.
With `CC(C)c1cccc(C(C)C)c1NC(=O)NS(=O)(=O)N1CCCC1` [Example 70, Urea, N-[2,6-bis(1-methylethyl)phenyl]-N′-(1-pyrrolidinylsulfonyl)-], the inhibition at 10 µM is < 10%.
On the same count and under the same terms, under `CC(C)c1cccc(C(C)C)c1NC(=O)NS(=O)(=O)N1CCCCC1` [Example 71, Urea, N-[2,6-bis(1-methylethyl)phenyl]-N′-(1-piperidinylsulfonyl)-] stands < 10%.
In the case of `C=CCN(CC)S(=O)(=O)NC(=O)Nc1c(C(C)C)cccc1C(C)C` [Example 73, Urea, N-[2,6-bis(1-methylethyl)phenyl]-N′-[[ethyl(2-propenyl)amino]-sulfonyl]-], the inhibition at 10 µM was < 10%.
Still for that read-out and setting: the same measure for `CCCCCCCCCCCCN(CCCCCCCCCCCC)S(=O)(=O)NC(=O)Nc1c(C(C)C)cccc1C(C)C` [Example 76, Urea, N-[2,6-bis(1-methylethyl)phenyl]-N′-[(didodecylamino)sulfonyl]-]: < 10%; for `CCCN(CCC)S(=O)(=O)NC(=O)Nc1c(C(C)C)cccc1C(C)C` [Example 77, Urea, N-[2,6-bis(1-methylethyl)phenyl]-N′-[(dipropylamino)sulfonyl]-]: < 10%; for `CC(C)c1cccc(C(C)C)c1NC(=O)NS(=O)(=O)N(C1CCCCC1)C1CCCCC1` [Example 78, Urea, N-[2,6-bis(1-methylethyl)phenyl]-N′-[(dicyclohexylamino)-sulfonyl]-]: 40.9%.
Turning to `CCCCCCCCCCCCOC(=O)NS(=O)(=O)Nc1c(OC)cc(OC)cc1OC` [Example 79, Carbamic acid, [[(2,4,6-trimethoxyphenyl)amino]sulfonyl]-, dodecyl ester], the inhibition at 10 µM is < 10%.

The assay is the same for the next values; noted with them: Homo sapiens; 10 μM compound; ECV-304 NF-κB.βlaZ cells stimulated with 10 ng/mL TNF-α or 100 pg/mL IL-1β, 6 hours at 37° C.; inhibition of maximum blue/green ratio; read-out: Percent Inhibition at 10 μM.
For the compound `CCCCCCCCCCCCOS(=O)(=O)NC(=O)Oc1c(C(C)(C)C)cc(C)cc1C(C)(C)C` [Example 51, Carbamic acid, [(dodecyloxy)sulfonyl]-, 2,6-bis(1,1-dimethylethyl)-4-methylphenyl ester], the inhibition at 10 µM was determined as 47.2%.
Turning to `CCCCCCCCCCN(CCCCCCCCCC)S(=O)(=O)NC(=O)Oc1c(C(C)(C)C)cc(C)cc1C(C)(C)C` [Example 52, Carbamic acid, [(didecylamino)sulfonyl]-, 2,6-bis(1,1-dimethylethyl)-4-methylphenyl ester], the inhibition at 10 µM is < 10%.
With `COC(=O)NS(=O)(=O)Oc1c(C(C)C)cccc1C(C)C` [Example 56, Carbamic acid, [[2,6-bis(1-methylethyl)phenoxy]sulfonyl]-, methyl ester], the inhibition at 10 µM was < 10%.
As for `CCCCCCOS(=O)(=O)NC(=O)Oc1c(C(C)C)cccc1C(C)C` [Example 57, Carbamic acid, [(hexyloxy)sulfonyl]-, 2,6-bis(1-methylethyl)phenyl ester], the inhibition at 10 µM was determined as 20.4%.
`CC(C)c1cccc(C(C)C)c1OC(=O)NS(=O)(=O)N1CCOCC1` [Example 58, Carbamic acid, (4-morpholinylsulfonyl)-, 2,6-bis(1-methylethyl)phenyl ester]: the inhibition at 10 µM is < 10%.
Take `CC(C)c1cccc(C(C)C)c1OC(=O)NS(=O)(=O)N1CCCCC1` [Example 59, Carbamic acid, (1-piperidinylsulfonyl)-, 2,6-bis(1-methylethyl)phenyl ester]: the inhibition at 10 µM was < 10%.
Consider `CC(C)c1cccc(C(C)C)c1OC(=O)NS(=O)(=O)N(C(C)C)C(C)C` [Example 62, Carbamic acid, [[bis(1-methylethyl)amino]sulfonyl]-, 2,6-bis(1-methylethyl)-phenyl ester], for which the inhibition at 10 µM was < 10%.
Consider `CC(C)c1cccc(C(C)C)c1OC(=O)NS(=O)(=O)NC(c1ccccc1)C(C)C` (stereo not shown) [Example 65, Carbamic acid, [[((1-methylethyl)phenylmethyl)amino]sulfonyl]-, 2,6-bis(1-methylethyl)phenyl ester], for which the inhibition at 10 µM stood at 16.4%.
For `CC(C)c1cccc(C(C)C)c1OC(=O)NS(=O)(=O)N1CCCC1` [Example 66, Carbamic acid, (1-pyrrolidinylsulfonyl)-, 2,6-bis(1-methylethyl)phenyl ester], the inhibition at 10 µM is < 10%.
For `CCCCCCNS(=O)(=O)NC(=O)Oc1c(C(C)C)cccc1C(C)C` [Example 67, Carbamic acid, [(hexylamino)sulfonyl]-, 2,6-bis(1-methylethyl)phenyl ester], the inhibition at 10 µM came out at 13.8%.
Consider `CC(C)c1cccc(C(C)C)c1OC(=O)NS(=O)(=O)N1CCc2ccccc21` [Example 72, Carbamic acid, [(2,3-dihydro-1H-indol-1-yl)sulfonyl]-, 2,6-bis(1-methylethyl)-phenyl ester], for which the inhibition at 10 µM was found to be 14.1%.
